System: IPF patients
Assay: Phase II clinical trial in IPF patients: Treatment Emergent Adverse Events (safety/tolerability), up to 13 weeks
Method: The participants were divided into 2 groups by chance (the “active agent group” and the “placebo group”). […] One 12 mg placebo tablet and one 6 mg placebo tablet (both containing no active ingredient, see Table 1) was administered orally to the patients of the second group twice daily (b.i.d.).
The “active agent group” and the “placebo group” were further distributed to two different groups regarding background medication: the “AF-group” (“antifibrotic background medication group”) and the “Non-AF-group” (“no antifibrotic background medication group”). […] The combination of both nintedanib and pirfenidone as background medication was not allowed in the “AF-group”.
The trial was a randomised, double-blind, placebo-controlled parallel group study.

[O-][S@+]1CCc2nc(N3CCC(c4ncc(Cl)cn4)CC3)nc(NC3(CO)CCC3)c21 [Comp. of form. III]
AE: Metabolism and nutrition disorders, patients n (Non-AF+AF total, 18 mg b.i.d.): 4
AE: Musculoskeletal and connective tissue disorders, patients % (Non-AF+AF total, 18 mg b.i.d.): (5.2) %
AE: Musculoskeletal and connective tissue disorders, patients n (Non-AF+AF total, 18 mg b.i.d.): 5
AE: Nasopharyngitis, patients % (Non-AF+AF total, 18 mg b.i.d.): (4.1) %
AE: Nasopharyngitis, patients n (Non-AF+AF total, 18 mg b.i.d.): 4
AE: Nausea, patients % (Non-AF+AF total, 18 mg b.i.d.): (3.1) %
AE: Nausea, patients n (Non-AF+AF total, 18 mg b.i.d.): 3
AE: Nervous system disorders, patients % (Non-AF+AF total, 18 mg b.i.d.): (13.4) %
AE: Nervous system disorders, patients n (Non-AF+AF total, 18 mg b.i.d.): 13
AE: Oedema peripheral, patients % (Non-AF+AF total, 18 mg b.i.d.): (2.1) %
AE: Oedema peripheral, patients n (Non-AF+AF total, 18 mg b.i.d.): 2
AE: Pyrexia, patients % (Non-AF+AF total, 18 mg b.i.d.): (2.1) %
AE: Pyrexia, patients n (Non-AF+AF total, 18 mg b.i.d.): 2
AE: Respiratory, thoracic and mediastinal disorders, patients % (Non-AF+AF total, 18 mg b.i.d.): (14.4) %
AE: Respiratory, thoracic and mediastinal disorders, patients n (Non-AF+AF total, 18 mg b.i.d.): 14
AE: Rhinorrhoea, patients % (Non-AF+AF total, 18 mg b.i.d.): (2.1) %
AE: Rhinorrhoea, patients n (Non-AF+AF total, 18 mg b.i.d.): 2
AE: Vomiting, patients % (Non-AF+AF total, 18 mg b.i.d.): (3.1) %
AE: Vomiting, patients n (Non-AF+AF total, 18 mg b.i.d.): 3
AE: Weight decreased, patients % (Non-AF+AF total, 18 mg b.i.d.): (3.1) %
AE: Weight decreased, patients n (Non-AF+AF total, 18 mg b.i.d.): 3
AEs leading to discontinuation of trial drug, patients % (Non-AF+AF total, 18 mg b.i.d.): (13.4) %
AEs leading to discontinuation of trial drug, patients n (Non-AF+AF total, 18 mg b.i.d.): 13
Any AE, patients n (Non-AF+AF total, 18 mg b.i.d.): 67
Diarrhoea leading to discontinuation of trial treatment, patients % (Non-AF+AF total, 18 mg b.i.d.): (3.1) %
Diarrhoea leading to discontinuation of trial treatment, patients n (Non-AF+AF total, 18 mg b.i.d.): 3
Dyspepsia leading to discontinuation of trial treatment, patients % (Non-AF+AF total, 18 mg b.i.d.): (1.0) %
Dyspepsia leading to discontinuation of trial treatment, patients n (Non-AF+AF total, 18 mg b.i.d.): 1
Gastrointestinal disorders leading to discontinuation of trial treatment, patients % (Non-AF+AF total, 18 mg b.i.d.): (5.2) %
Gastrointestinal disorders leading to discontinuation of trial treatment, patients n (Non-AF+AF total, 18 mg b.i.d.): 5
SAE: COPD, patients % (Non-AF+AF total, 18 mg b.i.d.): (1.0) %
SAE: COPD, patients n (Non-AF+AF total, 18 mg b.i.d.): 1
SAE: Cardiac disorders, patients % (Non-AF+AF total, 18 mg b.i.d.): (1.0) %
SAE: Cardiac disorders, patients n (Non-AF+AF total, 18 mg b.i.d.): 1
SAE: Cardiac failure congestive, patients % (Non-AF+AF total, 18 mg b.i.d.): (1.0) %
SAE: Cardiac failure congestive, patients n (Non-AF+AF total, 18 mg b.i.d.): 1
SAE: Condition aggravated, patients % (Non-AF+AF total, 18 mg b.i.d.): (2.1) %
SAE: Condition aggravated, patients n (Non-AF+AF total, 18 mg b.i.d.): 2
SAE: Covid-19 pneumonia, patients % (Non-AF+AF total, 18 mg b.i.d.): (1.0) %
SAE: Covid-19 pneumonia, patients n (Non-AF+AF total, 18 mg b.i.d.): 1
SAE: Dyspnoea, patients % (Non-AF+AF total, 18 mg b.i.d.): (1.0) %
SAE: Dyspnoea, patients n (Non-AF+AF total, 18 mg b.i.d.): 1
SAE: General disorders and administration side conditions, patients % (Non-AF+AF total, 18 mg b.i.d.): (2.1) %
SAE: General disorders and administration side conditions, patients n (Non-AF+AF total, 18 mg b.i.d.): 2
SAE: Infections and Infestations, patients % (Non-AF+AF total, 18 mg b.i.d.): (1.0) %
SAE: Infections and Infestations, patients n (Non-AF+AF total, 18 mg b.i.d.): 1
SAE: Lung neoplasm, patients % (Non-AF+AF total, 18 mg b.i.d.): (1.0) %
SAE: Lung neoplasm, patients n (Non-AF+AF total, 18 mg b.i.d.): 1
SAE: Neoplasms benign, malignant and unspecified, patients % (Non-AF+AF total, 18 mg b.i.d.): (1.0) %
SAE: Neoplasms benign, malignant and unspecified, patients n (Non-AF+AF total, 18 mg b.i.d.): 1
SAE: Nervous system disorders, patients % (Non-AF+AF total, 18 mg b.i.d.): (1.0) %
SAE: Nervous system disorders, patients n (Non-AF+AF total, 18 mg b.i.d.): 1
SAE: Peripheral nerve paresis, patients % (Non-AF+AF total, 18 mg b.i.d.): (1.0) %
SAE: Peripheral nerve paresis, patients n (Non-AF+AF total, 18 mg b.i.d.): 1
SAE: Respiratory, thoracic and mediastinal disorders, patients % (Non-AF+AF total, 18 mg b.i.d.): (1.0) %
SAE: Respiratory, thoracic and mediastinal disorders, patients n (Non-AF+AF total, 18 mg b.i.d.): 1
SAE: Vascular disorders, patients % (Non-AF+AF total, 18 mg b.i.d.): (1.0) %
SAE: Vascular disorders, patients n (Non-AF+AF total, 18 mg b.i.d.): 1
SAE: Vasculitis, patients % (Non-AF+AF total, 18 mg b.i.d.): (1.0) %
SAE: Vasculitis, patients n (Non-AF+AF total, 18 mg b.i.d.): 1
Serious AEs (patients with ≥1 SAE), patients % (Non-AF+AF total, 18 mg b.i.d.): (6.2) %
Serious AEs (patients with ≥1 SAE), patients n (Non-AF+AF total, 18 mg b.i.d.): 6
Severe AEs, patients % (Non-AF+AF total, 18 mg b.i.d.): (4.1) %
Severe AEs, patients n (Non-AF+AF total, 18 mg b.i.d.): 4
Vomiting leading to discontinuation of trial treatment, patients % (Non-AF+AF total, 18 mg b.i.d.): (1.0) %
Vomiting leading to discontinuation of trial treatment, patients n (Non-AF+AF total, 18 mg b.i.d.): 1
Any AE, patients % (Non-AF+AF total, 18 mg b.i.d., listed as Compound of formula III): (69.1) %
Any AE, patients % (Non-AF+AF total, 18 mg b.i.d., listed as active agent): 67%
Abdominal Pain, % (Non-AF, N = 48): (2.1) %
Asthenia, % (Non-AF, N = 48): (6.3) %
Bronchitis, % (Non-AF, N = 48): (2.1) %
Constipation, % (Non-AF, N = 48): (2.1) %
Cough, % (Non-AF, N = 48): (6.3) %
Decreased appetite, % (Non-AF, N = 48): (2.1) %
Diarrhoea, % (Non-AF, N = 48): (16.7) %
Dizziness, % (Non-AF, N = 48): (2.1) %
Dyspepsia, % (Non-AF, N = 48): (6.3) %
Dyspnoea, % (Non-AF, N = 48): (6.3) %
Fatigue, % (Non-AF, N = 48): (4.2) %
Flatulence, % (Non-AF, N = 48): (6.3) %
Gastrointestinal disorders, % (Non-AF, N = 48): (27.1) %
General Disorders and Administration Side conditions, % (Non-AF, N = 48): (18.8) %
Headache, % (Non-AF, N = 48): (6.3) %
Infections and infestations, % (Non-AF, N = 48): (14.6) %
Investigations, % (Non-AF, N = 48): (10.4) %
Metabolism and nutrition disorders, % (Non-AF, N = 48): (2.1) %
Musculoskeletal and connective tissue disorders, % (Non-AF, N = 48): (4.2) %
Nausea, % (Non-AF, N = 48): (4.2) %
Nervous system disorders, % (Non-AF, N = 48): (8.3) %
Oedema peripheral, % (Non-AF, N = 48): (2.1) %
Pyrexia, % (Non-AF, N = 48): (2.1) %
Respiratory, thoracic and mediastinal disorders, % (Non-AF, N = 48): (16.7) %
Rhinorrhoea, % (Non-AF, N = 48): (2.1) %
Vomiting, % (Non-AF, N = 48): (2.1) %
Weight decreased, % (Non-AF, N = 48): (4.2) %
AE resulting in death, patients % (Non-AF-group, 18 mg b.i.d.): (2.1) %
AE resulting in death, patients n (Non-AF-group, 18 mg b.i.d.): 1
AE: Abdominal pain, patients % (Non-AF-group, 18 mg b.i.d.): (2.1) %
AE: Abdominal pain, patients n (Non-AF-group, 18 mg b.i.d.): 1
AE: Asthenia, patients % (Non-AF-group, 18 mg b.i.d.): (6.3) %
AE: Asthenia, patients n (Non-AF-group, 18 mg b.i.d.): 3
AE: Bronchitis, patients % (Non-AF-group, 18 mg b.i.d.): (2.1) %
AE: Bronchitis, patients n (Non-AF-group, 18 mg b.i.d.): 1
AE: Constipation, patients % (Non-AF-group, 18 mg b.i.d.): (2.1) %
AE: Constipation, patients n (Non-AF-group, 18 mg b.i.d.): 1
AE: Cough, patients % (Non-AF-group, 18 mg b.i.d.): (6.3) %
AE: Cough, patients n (Non-AF-group, 18 mg b.i.d.): 3

From patent US20230190754A1, “Therapeutic combinations for the treatment of Progressive Fibrosing interstitial lung diseases” (Boehringer Ingelheim International GmbH, priority 2021, published 2023)
